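These data come from cells grown in 96-well plates and exposed to compound for 48 hours at five concentrations. The concentration for 50% growth inhibition is given as GI50.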 Calls of active or inactive are those of the source. Cut-off read from the data, not from the text of the source: active = GI50 up to about 1.1 µM and inactive = higher.
Experiments:
Assay in all cases: NCI-60 cell line screen, 48 h
HOP-62 = system: HOP-62
OVCAR-8 = system: OVCAR-8
MOLT-4 = system: MOLT-4
TK-10 = system: TK-10
OVCAR-3 = system: OVCAR-3
PC-3 = system: PC-3
SF-295 = system: SF-295
SR = system: SR
NCI/ADR-RES = system: NCI/ADR-RES
NCI-H460 = system: NCI-H460
OVCAR-5 = system: OVCAR-5
DU-145 = system: DU-145
CAKI-1 = system: CAKI-1
KM12 = system: KM12
A498 = system: A498
EKVX = system: EKVX
MDA-MB-231 = system: MDA-MB-231
RXF 393 = system: RXF 393

SMILES | GI50 (HOP-62) | GI50 (OVCAR-8) | GI50 (MOLT-4) | GI50 (TK-10) | GI50 (OVCAR-3) | GI50 (PC-3) | GI50 (SF-295) | GI50 (SR) | GI50 (NCI/ADR-RES) | GI50 (NCI-H460) | GI50 (OVCAR-5) | GI50 (DU-145) | GI50 (CAKI-1) | GI50 (KM12) | GI50 (A498) | GI50 (EKVX) | GI50 (MDA-MB-231) | GI50 (RXF 393)
N=C(N)NC(=N)Nc1ccc(S(N)(=O)=O)cc1 | > 100 µM (inactive) | > 100 µM (inactive) | > 100 µM (inactive) | > 100 µM (inactive) | > 100 µM (inactive) | > 100 µM (inactive) | > 100 µM (inactive) | > 100 µM (inactive) | > 100 µM (inactive) | > 100 µM (inactive) | > 100 µM (inactive) | > 100 µM (inactive) | > 100 µM (inactive) | > 100 µM (inactive) | > 100 µM (inactive) | > 100 µM (inactive) | > 100 µM (inactive) | > 100 µM (inactive)
CCOC(=O)c1ccc(-c2cccs2)[nH]1 | > 66.4 µM (inactive) | > 55.5 µM (inactive) | 51.4 µM (inactive) | > 65.3 µM (inactive) | 59.8 µM (inactive) | 72.6 µM (inactive) | > 100 µM (inactive) | 54.7 µM (inactive) | 42.2 µM (inactive) | > 100 µM (inactive) | > 57 µM (inactive) | 49 µM (inactive) | > 92.5 µM (inactive) | > 100 µM (inactive) | > 55.5 µM (inactive) | 38.8 µM (inactive) | > 61.8 µM (inactive) | > 66.4 µM (inactive)
COc1cc(OC2OC(COC(=O)c3cc(O)c(O)c(O)c3)C(O)C(O)C2O)ccc1O (stereo not given) | > 100 µM (inactive) | 89.9 µM (inactive) | 53.1 µM (inactive) | 76.7 µM (inactive) | 84.1 µM (inactive) | 26.2 µM (inactive) | 78.7 µM (inactive) | > 100 µM (inactive) | > 100 µM (inactive) | > 100 µM (inactive) | > 100 µM (inactive) | > 100 µM (inactive) | 69.2 µM (inactive) | 88.1 µM (inactive) | > 100 µM (inactive) | > 100 µM (inactive) | 34.5 µM (inactive) | > 100 µM (inactive)
CCCCCC/C=C\CCCCCCCCCC1=CC(=O)C=C(OC)C1=O [IRISQUINONE A] | 3.48 µM (inactive) | 0.593 µM (active) | 3.79 µM (inactive) | 6.05 µM (inactive) | 3.98 µM (inactive) | 1.81 µM (inactive) | 3.6 µM (inactive) | 2.72 µM (inactive) | 3.8 µM (inactive) | 2.72 µM (inactive) | 5.6 µM (inactive) | 5.62 µM (inactive) | 3.48 µM (inactive) | 3.75 µM (inactive) | 5.82 µM (inactive) | 3.57 µM (inactive) | 4.36 µM (inactive) | 3.01 µM (inactive)
COc1ccc(OC)c2c1C=C[C@H](C1(C)SCCS1)C2C(C)=O (stereo not given in full) | 39.8 µM (inactive) | 44.2 µM (inactive) | 19.7 µM (inactive) | 40.2 µM (inactive) | 29.3 µM (inactive) | 26.7 µM (inactive) | 23.9 µM (inactive) | 19.6 µM (inactive) | 32.2 µM (inactive) | 27.9 µM (inactive) | 21.3 µM (inactive) | 28.9 µM (inactive) | 32.6 µM (inactive) | 32.4 µM (inactive) | 26 µM (inactive) | 41.1 µM (inactive) | 32.2 µM (inactive) | 29.4 µM (inactive)
OC1C2[C@@H](O)CCCN2C[C@@H](O)[C@H]1O (stereo not given in full) | > 100 µM (inactive) | > 100 µM (inactive) | > 100 µM (inactive) | > 100 µM (inactive) | > 100 µM (inactive) | > 100 µM (inactive) | > 100 µM (inactive) | > 100 µM (inactive) | > 100 µM (inactive) | > 100 µM (inactive) | > 100 µM (inactive) | > 100 µM (inactive) | > 100 µM (inactive) | > 100 µM (inactive) | > 100 µM (inactive) | > 100 µM (inactive) | > 100 µM (inactive) | > 100 µM (inactive)
O=C(Nc1sccc1S(=O)(=O)c1ccc(Cl)cc1)c1ccc(Cl)cc1 | 39.4 µM (inactive) | 63 µM (inactive) | > 100 µM (inactive) | 50.8 µM (inactive) | > 100 µM (inactive) | 25.9 µM (inactive) | 34 µM (inactive) | > 100 µM (inactive) | > 100 µM (inactive) | 56.5 µM (inactive) | > 100 µM (inactive) | > 100 µM (inactive) | 80.4 µM (inactive) | > 100 µM (inactive) | > 100 µM (inactive) | 31 µM (inactive) | 35.2 µM (inactive) | 65.6 µM (inactive)
COc1cc2c3c(cc(Cl)nc3c1OC)C(O)(CC(C)=O)C(=O)N2 (stereo not given) | > 44.6 µM (inactive) | 18.5 µM (inactive) | 9.35 µM (inactive) | 20.2 µM (inactive) | 33 µM (inactive) | 25.1 µM (inactive) | > 100 µM (inactive) | 19.3 µM (inactive) | > 44.9 µM (inactive) | 36 µM (inactive) | > 42.4 µM (inactive) | > 39.1 µM (inactive) | 22.1 µM (inactive) | > 45.5 µM (inactive) | 18.3 µM (inactive) | 16.2 µM (inactive) | 17 µM (inactive) | 16.3 µM (inactive)
COP(=O)(OC)/C(=C/c1c[nH]c2ccccc12)C(=O)O | > 100 µM (inactive) | > 100 µM (inactive) | > 100 µM (inactive) | > 100 µM (inactive) | > 100 µM (inactive) | > 100 µM (inactive) | > 100 µM (inactive) | > 100 µM (inactive) | > 100 µM (inactive) | > 100 µM (inactive) | > 100 µM (inactive) | > 100 µM (inactive) | > 100 µM (inactive) | > 100 µM (inactive) | > 100 µM (inactive) | > 100 µM (inactive) | > 100 µM (inactive) | > 100 µM (inactive)
Cc1nc2c(o1)C(=O)c1ccccc1/C2=N/c1ccc(N2CCOCC2)cc1 | 8.85 µM (inactive) | 2.81 µM (inactive) | 4.91 µM (inactive) | 48 µM (inactive) | 1.69 µM (inactive) | 2.08 µM (inactive) | 2.52 µM (inactive) | 3.86 µM (inactive) | 2.88 µM (inactive) | 11.1 µM (inactive) | 18.2 µM (inactive) | 3.31 µM (inactive) | 13.2 µM (inactive) | 16 µM (inactive) | 18.7 µM (inactive) | 7.73 µM (inactive) | 2.7 µM (inactive) | 0.421 µM (active)
C=C1C(=O)O[C@@H]2C[C@@H]3[C@]4(CC[C@]5(C)[C@@H]([C@H](C)CC/C=C(\C)C=O)CC[C@@]35C)C[C@]4(CCC(=O)OC)[C@H]12 | 2.38 µM (inactive) | 1.12 µM (active) | 0.979 µM (active) | 2.46 µM (inactive) | 1.62 µM (inactive) | 1.9 µM (inactive) | 2.14 µM (inactive) | 0.993 µM (active) | 2.35 µM (inactive) | 2.8 µM (inactive) | 2.16 µM (inactive) | 1.79 µM (inactive) | 3.26 µM (inactive) | 1.86 µM (inactive) | 2.79 µM (inactive) | 2.99 µM (inactive) | 1.95 µM (inactive) | 1.89 µM (inactive)
COc1cc(/C=N/c2nc3cc4sc(/N=C/c5cc(OC)c(OC)c(OC)c5)nc4cc3s2)cc(OC)c1OC | 57.1 µM (inactive) | 95.5 µM (inactive) | 31.3 µM (inactive) | > 100 µM (inactive) | 32.7 µM (inactive) | 52.1 µM (inactive) | 56.8 µM (inactive) | 21.7 µM (inactive) | 34.1 µM (inactive) | 21.5 µM (inactive) | > 100 µM (inactive) | > 100 µM (inactive) | > 100 µM (inactive) | 52.1 µM (inactive) | > 100 µM (inactive) | 42 µM (inactive) | 79.4 µM (inactive) | > 100 µM (inactive)
COc1ccc(C2=C3SC=c4ccccc4=C3ON=C2c2ccccc2)cc1 | > 100 µM (inactive) | > 100 µM (inactive) | 37.2 µM (inactive) | > 100 µM (inactive) | 94.8 µM (inactive) | > 100 µM (inactive) | > 100 µM (inactive) | 42 µM (inactive) | > 100 µM (inactive) | > 100 µM (inactive) | > 100 µM (inactive) | > 100 µM (inactive) | > 100 µM (inactive) | > 100 µM (inactive) | > 100 µM (inactive) | > 100 µM (inactive) | > 100 µM (inactive) | > 100 µM (inactive)
C[N+](C)(C)CC(=O)N/N=C(\Cc1nc2ccc([N+](=O)[O-])cc2nc1O)C(=O)Nc1nc2ccc([N+](=O)[O-])cc2s1 | 57.9 µM (inactive) | 74.3 µM (inactive) | 49.2 µM (inactive) | 67.6 µM (inactive) | 31.8 µM (inactive) | 27.1 µM (inactive) | 51.8 µM (inactive) | 44.1 µM (inactive) | 63.4 µM (inactive) | 23.4 µM (inactive) | > 100 µM (inactive) | 39.4 µM (inactive) | 24.6 µM (inactive) | 45.2 µM (inactive) | 51.5 µM (inactive) | 25 µM (inactive) | > 100 µM (inactive) | 41.3 µM (inactive)
CC(C)NCC(O)c1ccc(O)c2ncccc12 (stereo not given) | 35.5 µM (inactive) | 33.3 µM (inactive) | 18.2 µM (inactive) | 47.3 µM (inactive) | 16 µM (inactive) | 46.5 µM (inactive) | 30.9 µM (inactive) | 25.4 µM (inactive) | 27.7 µM (inactive) | 5.58 µM (inactive) | > 100 µM (inactive) | 37.2 µM (inactive) | 64.9 µM (inactive) | 54.6 µM (inactive) | > 100 µM (inactive) | 49.3 µM (inactive) | 27 µM (inactive) | 91 µM (inactive)

— ChEMBL document CHEMBL1201862, “PubChem BioAssay data set” (2004)
